Earlier results in patent publication US20140328945A1, “METHOD FOR STABILIZING AN ELECTROCHEMICALLY GENERATED SANITIZING SOLUTION HAVING A PREDETERMINED LEVEL OF FREE AVAILABLE CHLORINE AND pH” (Aquaxo, Inc., priority 2013, published 2014).

How the values were obtained:
Escherichia coli = settings: E. coli exposed to Hypochlorous Acid
E. coli [1] = test system: E. coli
E. coli [2] = settings: 2.6 ppm, dilute bacterial suspensions, in about 5 minutes

In the case of `OCl` [Hypochlorous Acid], the “concentration required for 100% kill in 5 minutes” value (S. clysvnteriae) is given as 0.05 ppm, the “concentration required for 100% kill in 5 minutes” value (S. typhosa) is given as 0.06 ppm and the “concentration required for 100% kill in 5 minutes” value (A. aerogenes) is given as 0.08 ppm. The “time to lose viability” value (Escherichia coli) was “less than 100 ms”, the “concentration required for 100% kill in 5 minutes” value (E. coli [1]) was 0.03 ppm and the growth inhibition (E. coli [2]) was 100%.
